Experimental data published in US9334265B2, “3-amino-pyrazole derivatives useful against tuberculosis” (GLAXO GROUP LIMITED, priority 2010, dated 2016).
In brackets after ≈: the same amount, converted by molar mass. Several values for one entry are separate records, joined by “and”; a condition that tells them apart may be missing. Identical values can stand only once. Like-named read-outs stand apart in the source and are kept apart here.

Columns and labels:
[1] = test system: Mycobacterium tuberculosis H37Rv; assay: Mycobacterium tuberculosis H37Rv Inhibition Assay (Whole Cell Assay); assay type: cell-based; conditions: ATCC 25618 / H37Rv, H37Rv strain (ATCC25618), Middlebrook 7H9, six days at 37° C., resazurin fluorescence after 48 hours
[2] = molecular target: T1, InhA (Mycobacterium tuberculosis, UniProt P9WGR1); assay: Mycobacterium tuberculosis InhA Inhibition Assay (Enzyme Assay); assay type: biochemical; conditions: 5 nM InhA, 50 μM DDCoA, 50 μM NADH, PIPES buffer pH 6.8, initial velocities of NADH consumption
T1 construct: made in house; host or cells: E. coli
T1 sequence (P9WGR1 whole entry, looked up): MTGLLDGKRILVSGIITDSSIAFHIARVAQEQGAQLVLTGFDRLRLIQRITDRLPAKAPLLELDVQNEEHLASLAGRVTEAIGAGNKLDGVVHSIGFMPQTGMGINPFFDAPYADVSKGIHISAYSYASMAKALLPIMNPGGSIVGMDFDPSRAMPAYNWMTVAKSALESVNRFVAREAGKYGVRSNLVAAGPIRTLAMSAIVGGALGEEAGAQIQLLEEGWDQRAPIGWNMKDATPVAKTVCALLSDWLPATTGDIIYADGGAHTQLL
Method: InhA is able to reduce 2-trans enoyl-CoA esters with concomitant oxidation of NADH to NAD^+. The assay format is based on the kinetic detection of NADH consumption.
Assay for InhA inhibition is carried out with mycobacterium recombinant protein expressed and purified form E. coli. Standard assay conditions for the determination of kinetic constants and inhibitors activity use 5 nM of InhA, 50 μM of Dodecenoyl-CoA synthesized and purified as described by Quémard et al (DDCoA) and 50 μM of NADH as substrates, and it is carried out in 30 mM PIPES buffer pH 6.8, containing 0.05% of BSA. […] Triclosan is used as positive control in every experiment. One μl of compounds is added to the wells containing 25 μl of the DDCoA+NADH mix, the reaction is started by adding 50 μl of the enzyme solution. Fluorescence from NADH is followed at room temperature during 20 minutes in a fluorescent plate reader (excitation at 340 nm; emission at 480 nm). IC50 values are determined using initial velocities of NADH consumption. • Quémard A, Sacchettini J C, Dessen A, et al. Enzymatic characterization of the target for isoniazid in Mycobacterium tuberculosis. Biochemistry 1995; 34:8235-41. Results of the Mycobacterium tuberculosis InhA Inhibition Assay (Enzyme Assay)

Cc1cc(C)n(C(C)c2nnc(Nc3ccn(Cc4ccccn4)n3)s2)n1 (centres unmarked) [Example 5, 5-[1-(3,5-dimethyl-1H-pyrazol-1-yl)ethyl]-N-[1-(2-pyridinylmethyl)-1H-pyrazol-3-yl]-1,3,4-thiadiazol-2-amine]
MIC [1]: > 10 µM
IC50 ([2]; IC50 value): 263 to 1310 nM

Cc1ccn(C(C)c2nnc(Nc3ccn(Cc4csc(C)n4)n3)s2)n1 (centres unmarked) [Example 23, 5-[1-(3-methyl-1H-pyrazol-1-yl)ethyl]-N-{1-[(2-methyl-1,3-thiazol-4-yl)methyl]-1H-pyrazol-3-yl}-1,3,4-thiadiazol-2-amine]
MIC [1]: 4 to 10 µM (≈ 1.55 to 3.87 µg/mL)
IC50 ([2]; read-out: IC50 value): 129 to 259 nM

CCOc1ncccc1Cn1ccc(Nc2nnc(C(C)n3nc(C)cc3C)s2)n1 (centres unmarked) [Example 11, 5-[1-(3,5-dimethyl-1H-pyrazol-1-yl)ethyl]-N-(1-{[2-(ethyloxy)-3-pyridinyl]methyl}-1H-pyrazol-3-yl)-1,3,4-thiadiazol-2-amine]
MIC [1]: > 10 µM
IC50 ([2]; IC50 value): > 1180 nM

Cc1csc(C(C)(O)c2nnc(Nc3nn(Cc4csc(C)n4)c4ccccc34)s2)n1 (centres unmarked) [Example 45, 1-(4-methyl-1,3-thiazol-2-yl)-1-[5-({1-[(2-methyl-1,3-thiazol-4-yl)methyl]-1H-indazol-3-yl}amino)-1,3,4-thiadiazol-2-yl]ethanol]
MIC [1]: > 10 µM
IC50 ([2]; IC50 value): 213 to 1060 nM

Cc1ccn(C(C)c2nnc(Nc3ccn(Cc4ncccc4F)n3)s2)n1 (racemic) [Example 13, N-{1-[(3-fluoro-2-pyridinyl)methyl]-1H-pyrazol-3-yl}-5-[1-(3-methyl-1H-pyrazol-1-yl)ethyl]-1,3,4-thiadiazol-2-amine]
MIC [1]: ≤ 4 µM
IC50 ([2]; read-out: IC50 value): ≤ 130 nM

Cc1csc(C(C)(O)c2nnc(Nc3ccn(Cc4cc(C)on4)n3)s2)n1 (centres unmarked) [Example 22, 1-[5-({1-[(5-methyl-3-isoxazolyl)methyl]-1H-pyrazol-3-yl}amino)-1,3,4-thiadiazol-2-yl]-1-(4-methyl-1,3-thiazol-2-yl)ethanol]
MIC [1]: 4 to 10 µM (≈ 1.61 to 4.03 µg/mL)
IC50 ([2]; read-out: IC50 value): 124 to 248 nM

Cc1ccn(C(C)c2nnc(Nc3nn(Cc4csc(C)n4)c4ccccc34)s2)n1 (centres unmarked) [Example 46, N-{5-[1-(3-methyl-1H-pyrazol-1-yl)ethyl]-1,3,4-thiadiazol-2-yl}-1-[(2-methyl-1,3-thiazol-4-yl)methyl]-1H-indazol-3-amine]
MIC [1]: > 10 µM
IC50 ([2]; IC50 value): > 1150 nM

Cc1cc(C)n(C(C)c2nnc(Nc3ccn(Cc4cnc(C)c(Cl)c4)n3)s2)n1 (centres unmarked) [Example 8, N-{1-[(5-chloro-6-methyl-3-pyridinyl)methyl]-1H-pyrazol-3-yl}-5-[1-(3,5-dimethyl-1H-pyrazol-1-yl)ethyl]-1,3,4-thiadiazol-2-amine]
MIC [1]: > 10 µM
IC50 ([2]; read-out: IC50 value): ≤ 117 nM

Cc1csc(C(C)(O)c2nnc(Nc3ccn(Cc4csc(N)n4)n3)s2)n1 (centres unmarked) [Example 17, 1-[5-({1-[(2-amino-1,3-thiazol-4-yl)methyl]-1H-pyrazol-3-yl}amino)-1,3,4-thiadiazol-2-yl]-1-(4-methyl-1,3-thiazol-2-yl)ethanol]
MIC [1]: > 10 µM
IC50 ([2]; IC50 value): 238 to 1190 nM

Cc1csc(C(C)(O)c2nnc(Nc3ccn(Cc4ncccc4C)n3)s2)n1 (centres unmarked) [Example 14, 1-[5-({1-[(3-methyl-2-pyridinyl)methyl]-1H-pyrazol-3-yl}amino)-1,3,4-thiadiazol-2-yl]-1-(4-methyl-1,3-thiazol-2-yl)ethanol]
MIC [1]: ≤ 1 µM
IC50 ([2]; IC50 value): ≤ 121 nM and 9.67 nM

Cc1ccn([C@@H](C)c2nnc(Nc3ccn(Cc4ncccc4F)n3)s2)n1 (single isomer, unassigned) [Example 40]
MIC [1]: ≤ 4 µM
IC50 ([2]; IC50 value): ≤ 130 nM

Cc1ccn(C(C)c2nnc(Nc3cc(C)n(Cc4ncccc4F)n3)s2)n1 (centres unmarked) [Example 29, N-{1-[(3-fluoro-2-pyridinyl)methyl]-5-methyl-1H-pyrazol-3-yl}-5-[1-(3-methyl-1H-pyrazol-1-yl)ethyl]-1,3,4-thiadiazol-2-amine]
MIC [1]: ≤ 4 µM
IC50 ([2]; IC50 value): ≤ 125 nM

Cc1ccn(C(C)c2nnc(Nc3ccn(Cc4nccc(C)c4F)n3)s2)n1 (centres unmarked) [Example 3, N-{1-[(3-fluoro-4-methyl-2-pyridinyl)methyl]-1H-pyrazol-3-yl}-5-[1-(3-methyl-1H-pyrazol-1-yl)ethyl]-1,3,4-thiadiazol-2-amine]
MIC [1]: > 10 µM
IC50 ([2]; read-out: IC50 value): ≤ 125 nM

Cc1csc(C(C)(O)c2nnc(Nc3ccn(Cc4nccc5ccccc45)n3)s2)n1 (centres unmarked) [Example 19, 1-(5-{[1-(1-isoquinolinylmethyl)-1H-pyrazol-3-yl]amino}-1,3,4-thiadiazol-2-yl)-1-(4-methyl-1,3-thiazol-2-yl)ethanol]
MIC [1]: 4 to 10 µM (≈ 1.8 to 4.5 µg/mL)
IC50 ([2]; read-out: IC50 value): ≤ 111 nM

Cc1csc([C@](C)(O)c2nnc(Nc3ccn(Cc4ncccc4F)n3)s2)n1 (single isomer, unassigned) [Example 41]
MIC [1]: ≤ 1 µM
IC50 ([2]; IC50 value): ≤ 120 nM

Cc1csc(C(C)(O)c2nnc(Nc3ccn(Cc4cnn(C)c4)n3)s2)n1 (centres unmarked) [Example 25, 1-[5-({1-[(1-methyl-1H-pyrazol-4-yl)methyl]-1H-pyrazol-3-yl}amino)-1,3,4-thiadiazol-2-yl]-1-(4-methyl-1,3-thiazol-2-yl)ethanol]
MIC [1]: > 10 µM
IC50 ([2]; IC50 value): 248 to 1240 nM

Cc1csc([C@@](C)(O)c2nnc(Nc3ccn(Cc4ncccc4F)n3)s2)n1 (single isomer, unassigned) [Example 42]
MIC [1]: > 10 µM
IC50 ([2]; IC50 value): 240 to 1200 nM

Cc1cc(C)n(C(C)c2nnc(Nc3ccn(Cc4ncc(Cl)cc4Cl)n3)s2)n1 (centres unmarked) [Example 9, N-{1-[(3,5-dichloro-2-pyridinyl)methyl]-1H-pyrazol-3-yl}-5-[1-(3,5-dimethyl-1H-pyrazol-1-yl)ethyl]-1,3,4-thiadiazol-2-amine]
MIC [1]: > 10 µM
IC50 ([2]; read-out: IC50 value): ≤ 111 nM

Cc1cc(C)n(C(C)c2nnc(Nc3ccn(Cc4nccc(C)c4F)n3)s2)n1 (centres unmarked) [Example 2, 5-[1-(3,5-dimethyl-1H-pyrazol-1-yl)ethyl]-N-{1-[(3-fluoro-4-methyl-2-pyridinyl)methyl]-1H-pyrazol-3-yl}-1,3,4-thiadiazol-2-amine]
MIC [1]: ≤ 4 µM
IC50 ([2]; read-out: IC50 value): ≤ 121 nM
